This note sets out measurements from patent US7816331B2, “Substituted indazole-O-glucosides” (Janssen Pharmaceutica NV, priority 2003, dated 2010).

The target in one test is T1, human SGLT2 (Homo sapiens, UniProt P31639).
T1 construct: expressed in transfected cells
T1 sequence (P31639 1-672): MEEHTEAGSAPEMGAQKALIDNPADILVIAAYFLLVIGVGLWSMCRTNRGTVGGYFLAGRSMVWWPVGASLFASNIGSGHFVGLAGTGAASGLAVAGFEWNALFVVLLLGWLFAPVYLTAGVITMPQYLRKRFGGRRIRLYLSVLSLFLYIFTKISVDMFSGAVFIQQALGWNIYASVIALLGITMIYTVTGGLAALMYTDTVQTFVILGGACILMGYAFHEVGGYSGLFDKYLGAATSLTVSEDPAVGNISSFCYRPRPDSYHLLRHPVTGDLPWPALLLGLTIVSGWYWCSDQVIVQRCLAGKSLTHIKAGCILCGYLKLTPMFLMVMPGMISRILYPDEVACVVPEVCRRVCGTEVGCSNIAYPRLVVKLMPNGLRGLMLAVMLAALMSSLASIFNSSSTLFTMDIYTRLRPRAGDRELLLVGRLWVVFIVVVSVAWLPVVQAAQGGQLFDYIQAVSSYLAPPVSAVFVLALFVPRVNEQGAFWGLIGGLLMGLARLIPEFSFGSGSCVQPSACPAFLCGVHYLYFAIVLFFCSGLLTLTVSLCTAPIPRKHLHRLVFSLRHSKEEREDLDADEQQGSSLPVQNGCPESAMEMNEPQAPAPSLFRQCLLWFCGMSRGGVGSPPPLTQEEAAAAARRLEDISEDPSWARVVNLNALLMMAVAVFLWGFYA
Kind of test: Cell-based assay for sodium-dependent glucose transport (14C-AMG uptake), CHOK-SGLT2. The settings on record: for inhibition at 10 µM: CHO-K1, read-out: CHOK-SGLT2 % Inh. @ 10 μM; for IC50: CHO-K1 cells stably expressing human SGLT2, Na-dependent 14C-AMG uptake, read-out: CHOK-SGLT2 IC50 (uM) ± SEM. As to the method: (§1) Cloning of the human SGLT1 and human SGLT2 cDNAs and construction of the mammalian expression vector: The human SGLT1 cDNA (Genbank M24847) was cloned from human small intestine. Human SGLT2 cDNA (Genbank M95549) was cloned from human kidney. Both full cDNAs were subcloned into pcDNA and sequenced to verify the integrity of the construct. Generation of CHO-K1 cells stably expressing human SGLT1 or human SGLT2: Transfection of CHO-K1 cells was performed using DMRIE-C reagent (Life Technologies, Gaithersburg, Md.). Transfectants were then selected in the presence of the antibiotic G418 (Gibco-BRL, Grand Island, N.Y.) at 400 μg/ml. Individual clones were then characterized using the functional assay described below. Cell-based assay for sodium-dependent glucose transport: Cell lines stably expressing human SGLT1 or SGLT2 were then used for functional analysis of Na^+-dependent glucose uptake. Briefly, cells were plated at a density of 65,000 cells per well in a 96-well plate and allowed to grow for 48 hours. Cells were subsequently washed one time with Assay Buffer (50 mM HEPES pH 7.4, 20 mM Tris, 5 mM KCl, 1 mM MgCl2, 1 mM CaCl2 and 137 mM NaCl) and treated with compound in the absence or presence of NaCl for 15 minutes. Cells were then labeled with ^14C-α-methylglucopyranoside (AMG, Sigma, St. Louis, Mo.), a non-metabolizable glucose analog specific for sodium-dependent glucose transporters as previously described (Peng, H. and Lever J. E. Post-transcriptional regulation of Na^+/glucose cotransporter (SGLT1) gene expression in LLC-PK1 cells. J Biol Chem 1995; 270:20536-20542.). After 2 hours the labelled cells were washed three times with ice-cold PBS. After aspiration, cells were solubilized using Microscint 20 (Packard, Meriden, Conn.) and Na-dependent ^14C-AMG uptake was quantified by measuring radioactivity. Plates were counted in a TopCount (Packard, Meriden, Conn.). Results are reported as the % inhibition or IC50 value from a representative experiment.

Another test has as its target T2, human SGLT1 (Homo sapiens, UniProt P13866).
T2 construct: expressed in transfected cells
T2 sequence (P13866 1-664): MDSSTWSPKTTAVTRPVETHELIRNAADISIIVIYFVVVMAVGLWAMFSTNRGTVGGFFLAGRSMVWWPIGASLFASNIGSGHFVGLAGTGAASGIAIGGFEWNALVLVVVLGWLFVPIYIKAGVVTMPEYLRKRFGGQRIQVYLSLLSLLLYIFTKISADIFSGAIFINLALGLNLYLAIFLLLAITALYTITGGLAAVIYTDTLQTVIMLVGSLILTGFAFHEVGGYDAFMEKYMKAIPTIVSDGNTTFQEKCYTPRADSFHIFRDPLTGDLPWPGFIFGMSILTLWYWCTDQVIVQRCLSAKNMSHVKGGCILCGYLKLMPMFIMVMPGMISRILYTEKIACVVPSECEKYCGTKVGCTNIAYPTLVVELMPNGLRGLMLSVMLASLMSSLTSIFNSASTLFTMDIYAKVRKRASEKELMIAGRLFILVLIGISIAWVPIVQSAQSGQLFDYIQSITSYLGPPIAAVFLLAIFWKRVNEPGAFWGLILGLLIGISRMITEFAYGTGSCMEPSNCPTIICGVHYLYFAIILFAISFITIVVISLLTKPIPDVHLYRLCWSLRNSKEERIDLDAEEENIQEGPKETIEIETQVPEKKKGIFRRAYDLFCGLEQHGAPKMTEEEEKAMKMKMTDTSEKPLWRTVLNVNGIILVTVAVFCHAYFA
As to the kind of experiment: Cell-based assay for sodium-dependent glucose transport (14C-AMG uptake), CHOK-SGLT1. The settings on record: 10 uM compound, CHO-K1 cells stably expressing human SGLT1, Na-dependent 14C-AMG uptake; for inhibition at 10 µM: read-out: CHOK-SGLT1 % Inh (10 uM). As to the method:
as §1, with “experiment. Variability for the functional assay was typically within 20%.” for “experiment.”

On to `Cc1cc(O[C@@H]2O[C@H](CO)[C@@H](O)[C@H](O)[C@H]2O)c2c(Cc3ccc4c(c3)CCO4)n[nH]c2c1` [Example 22, 2-[3-(2,3-Dihydro-benzofuran-5-ylmethyl)-6-methyl-1H-indazol-4-yloxy]-β-D-glucopyranoside], for which the inhibition at 10 µM on human SGLT2 came to 40%. The “CHOK-SGLT1 % Inh (10 uM)” value at human SGLT1 is “inactive”.

With `Cc1cc(OC2OC(CO)C(O)C(O)C2O)c2c(CCc3ccc4ccccc4c3)n[nH]c2c1` [Example 4, 2-[6-Methyl-3-(2-naphthalen-2-yl-ethyl)-1H-indazol-4-yloxy]-β-D-glucopyranoside], the IC50 at human SGLT2 amounted to 1.95 ± 0.816 µM. Further, the inhibition at 10 µM at human SGLT1 is 18%.

Take `Cc1cc(O[C@@H]2O[C@H](CO)[C@@H](O)[C@H](O)[C@H]2O)c2c(CCc3ccc4c(c3)CCO4)n[nH]c2c1` [Example 1, 2-{3-[2-(2,3-Dihydro-benzofuran-5-yl)-ethyl]-6-methyl-1H-indazol-4-yloxy}β3-D-glucopyranoside]: the IC50 on human SGLT2 was 0.458 ± 0.061 µM. On human SGLT1, the inhibition at 10 µM came to 48%.

With `COC1CCc2cc(CCc3n[nH]c4cc(C)cc(OC5OC(CO)C(O)C(O)C5O)c34)ccc2C1` [Example 7, 2-{3-[2-(6-Methoxy-5,6,7,8-tetrahydro-naphthalen-2-yl)-ethyl]-6-methyl-1H-indazol-4-yloxy}β-D-glucopyranoside], at human SGLT2, the inhibition at 10 µM was 43%. Moreover, the “CHOK-SGLT1 % Inh (10 uM)” value at human SGLT1 is “inactive”.

Consider `Cc1cc(OC2OC(CO)C(O)C(O)C2O)c2c(CCC3CCCCC3)n[nH]c2c1` [Example 17, 2-[3-(2-Cyclohexyl-ethyl)-6-methyl-1H-indazol-4-yloxy]-β-D-glucopyranoside], for which the inhibition at 10 µM at human SGLT2 came out at 67%. Besides, at human SGLT1, the “CHOK-SGLT1 % Inh (10 uM)” value was “inactive”.

For `Cc1cc(OC2OC(CO)C(O)C(O)C2O)c2c(CCc3ccc(C(F)(F)F)cc3)n[nH]c2c1` [Example 12, 2-{3-[2-(4-Trifluoromethyl-phenyl)-ethyl]-6-methyl-1H-indazol-4-yloxy}β-D-glucopyranoside], the inhibition at 10 µM at human SGLT2 was found to be 36%. Also, the “CHOK-SGLT1 % Inh (10 uM)” value on human SGLT1 is “inactive”.

As to `Cc1cc(OC2OC(CO)C(O)C(O)C2O)c2c(CCc3ccc(NS(C)(=O)=O)cc3)n[nH]c2c1` [Example 16, 2-{3-[2-(4-Methanesulfonylamino-phenyl)-ethyl]-6-methyl-1H-indazol-4-yloxy}β-D-glucopyranoside], on human SGLT2, the inhibition at 10 µM is 42%. For the same compound, at human SGLT1, the “CHOK-SGLT1 % Inh (10 uM)” value is “inactive”.

In the case of `Cc1cc(OC2OC(CO)C(O)C(O)C2O)c2c(CCc3ccc4c(c3)CCO4)nn(C)c2c1` [Example 15, 2-{3-[2-(2,3-Dihydro-benzofuran-5-yl)-ethyl]-1,6-dimethyl-1H-indazol-4-yloxy}-β-D-glucopyranoside], on human SGLT2, the IC50 was determined as 0.754 ± 0.069 µM. In addition, the inhibition at 10 µM at human SGLT1 amounted to 47%.

Regarding `CC(=O)OC[C@H]1O[C@@H](Oc2cc(C)cc3[nH]nc(CCc4ccc5occc5c4)c23)[C@H](O)[C@@H](O)[C@@H]1O` [Example 14, 2-[3-(2-Benzofuran-5-yl-ethyl)-6-methyl-1H-indazol-4-yloxy]-6-O-acetyl-β-D-glucopyranoside], at human SGLT2, the IC50 worked out at 1.5 ± 0.071 µM. Besides, the inhibition at 10 µM at human SGLT1 turned out to be 42%.

As for `CC(=O)OC[C@H]1O[C@@H](Oc2cc(C)cc3[nH]nc(CCc4ccc5c(c4)CCO5)c23)[C@H](O)[C@@H](O)[C@@H]1O` [Example 2, 2-{3-[2-(2,3-Dihydro-benzofuran-5-yl)-ethyl]-6-methyl-1H-indazol-4-yloxy}-6-O— acetyl-β-D-glucopyranoside], the inhibition at 10 µM was 69% on human SGLT2 and 14% at human SGLT1.

`Cc1cc(O[C@@H]2O[C@H](CO)[C@@H](O)[C@H](O)[C@H]2O)c2c(CCc3ccc4c(c3)OCCO4)n[nH]c2c1` [Example 3, 2-{3-[2-(2,3-Dihydro-benzo[1,4]dioxin-6-yl)-ethyl]-6-methyl-1H-indazol-4-yloxy}β-D-glucopyranoside]: on human SGLT2, the IC50 was 1.59 ± 0.025 µM. The “CHOK-SGLT1 % Inh (10 uM)” value at human SGLT1 is “inactive”.

Consider `CCc1cc(O[C@@H]2O[C@H](CO)[C@@H](O)[C@H](O)[C@H]2O)c2c(CCc3ccc4c(c3)CCO4)n[nH]c2c1` [Example 19, 2-{3-[2-(2,3-Dihydro-benzofuran-5-yl)-ethyl]-6-ethyl-1H-indazol-4-yloxy}-D-glucopyranoside], for which the IC50 on human SGLT2 came out at 0.532 ± 0.047 µM. Also, the “CHOK-SGLT1 % Inh (10 uM)” value at human SGLT1 was “inactive”.

Turning to `Cc1cc(OC2OC(CO)C(O)C(O)C2O)c2c(CCc3ccc(Cl)cc3)n[nH]c2c1` [Example 11, 2-{3-[2-(4-Chloro-phenyl)-ethyl]-6-methyl-1H-indazol-4-yloxy}-β-D-glucopyranoside], the inhibition at 10 µM worked out at 66% on human SGLT2 and 12% on human SGLT1.

Consider `Cc1cc(O[C@@H]2OC(CO)[C@@H](O)[C@H](O)[C@H]2O)c2c(CCc3ccc4occc4c3)n[nH]c2c1` (stereo partly drawn) [Example 13, 2-[3-(2-Benzofuran-5-yl-ethyl)-6-methyl-1H-indazol-4-yloxy]-β-D-glucopyranoside], for which the inhibition at 10 µM at human SGLT1 is 52%.
